Results from US20230310390A1, “INHIBITORS OF SHORT-CHAIN DEHYDROGENASE ACTIVITY FOR TREATING NEURODEGENERATION” (CASE WESTERN RESERVE UNIVERSITY, priority 2020, published 2023).
Entries after “also recorded” stand apart in the source; their conditions may differ.

Tests used:
Type in all cases: in vivo
eicosanoids = assay: Eicosanoid profiling by LC-MS/MS, brain hemispheres of mice after sham or traumatic brain injury (TBI); conditions: for eicosanoid values in left hemisphere / eicosanoid values in right hemisphere (trends): 5 mk/kg twice daily for 21 days
Method: Eicosanoids were measured by methods of liquid chromatography with tandem mass spectrometry with the use of spiked in deuterated internal standards. Eicosanoids measured included: the 6-keto-PGF1 alpha (6-keto-PGF1a, a hydrolysis product of and proxy for prostacyclin), thromboxane B2 (TXB2, a metabolite/product of and proxy for thromboxane A2), PGD2, PGE2, 15-keto-PGE2 (produced by 15-PGDH degradation of PGE2), tetranor PGE1 (TN-E, a metabolic product produced by beta-oxidation of PGE2), PGJ2, PGF2 alpha (PGF2a), LTB4, 15-HETE, 12-HETE, 8-HETE, 5-HETE, 17-HDHA, 12,13-DiHOME, 14,15-DHET, 11,12-DHET.
FIGS. 4-6 illustrate graphs showing comparisons of eicosanoid values in brain of wild-type male mice who at 8 weeks of age were subjected to sham or actual traumatic brain injury (TBI) delivered by blast wave to the left skull. 24 hours following sham or actual TBI treatment commenced by injection twice daily with either 5 mk/kg (+)-SW033291 or with matched vehicle control as described in Zhang et al. Science. 2015; 348(6240):aaa2340. PMCID: PMC4481126. Treatment continued for 21 days until mice reached 11 weeks of age. Three hours following the last injection, mice were sacrificed. After sacrifice the right or left hemisphere of the brain was dissected, flash frozen, and powdered, and eicosanoids were extracted in organic solvent for analysis. Values were normalized to the wet weight of the companion contralateral brain hemispheres and are recorded as ng eicosanoid per gm wet weight of tissue.

15-PGDH [1] = target: T1, 15-PGDH (Mus musculus, UniProt Q8VCC1); assay: 15-PGDH enzymatic activity in forebrain after TBI; conditions: Hpgd+/+ mice, 3 weeks after TBI, 5 mg/kg started 24 hours after injury
T1 construct: brain tissue was dissected 3 weeks later for biochemical determination of 15-PGDH enzymatic activity; from tissue; host or cells: mouse brain (forebrain after TBI; whole brain of 5xFAD and WT littermates)
T1 sequence (Q8VCC1 1-269): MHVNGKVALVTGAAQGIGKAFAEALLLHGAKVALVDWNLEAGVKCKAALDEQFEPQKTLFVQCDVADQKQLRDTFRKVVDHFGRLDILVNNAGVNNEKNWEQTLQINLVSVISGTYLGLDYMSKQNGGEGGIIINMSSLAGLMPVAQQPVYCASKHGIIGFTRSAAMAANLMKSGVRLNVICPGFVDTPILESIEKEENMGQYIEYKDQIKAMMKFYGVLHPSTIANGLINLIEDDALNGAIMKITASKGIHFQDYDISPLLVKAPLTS
Method: (§1) (A) 8 week old 15-PGDH wild-type (Hpgd^+/+) and 15-PGDH knockout (Hpgd^−/−) mice were subjected to TBI, and brain tissue was dissected 2 weeks later for western blot. […] Individual human data points are shown on the graph. Data was analyzed with Student's t test. * p<0.05. All data is mean±SEM. (C) Hpgd^+/+ mice were subjected to TBI at 8 weeks of age and then brain tissue was dissected 3 weeks later for biochemical determination of 15-PGDH enzymatic activity. […] Individual mouse data points are shown on the graph. Data was analyzed with Student's t test. ** p<0.01, **** p<0.0001. All data is mean±SEM. (D) 5×FAD mice and wild type littermates (WT) were administered either 5 mg/kg/day (+)-SW033291 twice daily (or vehicle) from 2 to 6 months of age, and then brains were dissected for biochemical assessment of 15-PGDH activity. […] Individual mouse data points are shown on the graph. Data was analyzed using two-way repeated measures ANOVA; * p<0.05, ** p<0.01, *** p<0.001. All data is mean±SEM.

5×FAD mice = assay: Morris water maze in 5×FAD mice; conditions: 5 mg/kg/day twice daily from 2 to 6 months
Method: (A) Experimental Timeline: Two month old 5×FAD and wild type (WT) littermates were treated with 5 mg/kg/day twice daily (+)-SW033291 (or vehicle) every day from 2 to 6 months. Cognitive performance was tested using Morris water maze (MWM) as shown in the timeline. (B) Animals were trained to find the hidden platform in the MWM maze for 3 consecutive days (4 trials/day), and latency to find the hidden platform was measured. […] (C) To probe for spatial memory of the hidden platform, one day after the last learning day the animals were tested in the same MWM, except the platform was removed. Memory was measured as latency to first cross the area where the platform was located and the number of times an animal crossed that area. […] Individual mouse data points are shown on the graph. Data was analyzed using two-way repeated measures ANOVA; * p<0.05, ** p<0.01, *** p<0.001. All data is mean±SEM.

[2] = system: C57/B6 mice exposed to TBI; assay: Morris water maze after TBI; conditions: for memory / cognitive impairment after TBI (MWM probe): 5 mg/kg twice daily started 24 hours after injury, tested 2 weeks after injury
Method: (A) Experimental Timeline: 8 week old C57/B6 mice were exposed to sham-injury or TBI. Twice daily treatment with 5 mg/kg (+)-SW033291 or vehicle was started 24 hours after injury and continued throughout the duration of the experiment. Animals were tested for cognitive performance in the Morris water maze (MWM) 2 weeks after injury. (B) Animals were trained to find the hidden platform in the MWM for 4 consecutive days (4 trials/day), with performance measured as latency to find the hidden platform. […] (C, D) To probe for spatial memory of the learned location of the hidden platform, one day after the final learning day the animals were tested in the same MWM except the platform was removed. Memory was measured as latency to first cross the area where the platform was located and the number of times the animal crossed that area. […] Individual mouse data points are shown on the graph. Data was analyzed using two-way repeated measures ANOVA; * p<0.05, ** p<0.01, *** p<0.001. All data is mean±SEM

15-PGDH [3] = target: T1, 15-PGDH; assay: 15-PGDH activity in whole brain of 5×FAD and WT mice; conditions: 5 mg/kg/day twice daily from 2 to 6 months of age
Method: as §1

[4] = following TBI, compared to vehicle treated mice
[5] = sham mice, compared to vehicle treated sham mice
[6] = MWM probe test, TBI mice, 5 mg/kg twice daily

CCCC[S+]([O-])c1sc2nc(-c3cccs3)cc(-c3ccccc3)c2c1N (single isomer, unassigned; (+)) [(+)-SW033291]
left hemisphere values of PGJ2, TN-E, 15-HETE, and 9,10-DiHOME (eicosanoids; TBI treated mice versus sham injury vehicle treated mice): restoration
eicosanoid values in left hemisphere (eicosanoids; [4]): significantly increased PGJ2, TN-E, 15-HETE, 8-HETE, 5-HETE, 9,10-DiHOME, and LTB4
eicosanoid values in right hemisphere (trends) (eicosanoids; [4]): trends toward decreased PGJ2, and TxB2
eicosanoid values in left hemisphere (eicosanoids; [5]): significantly decreased PGE2, PGF2a, 6-keto-PGF1a, PGD2, PGJ2, TN-E, TxB2, 15-HETE, 12-HETE, 9,10-DiHOME
eicosanoid values in right hemisphere (trends) (eicosanoids; [5]): a trend toward increased PGE2, 15-keto-PGE2, PGF2a, TN-E, 15-HETE, 12-HETE, 8-HETE, 5-HETE, and LTB4
15-PGDH enzymatic activity in the forebrain (15-PGDH [1]): restored to normal; also recorded: returned to normal
average (escape) latency to find the hidden platform (learning) (5×FAD mice; 5×FAD and WT mice, 3 consecutive days): not different between groups
memory deficit / cognitive function (MWM probe) (5×FAD mice; 5×FAD mice, 5 mg/kg/day): alleviated this deficit
memory deficit / cognitive function (MWM probe) (5×FAD mice; 5×FAD mice, listed as (+)-SW033921, 5 mg/kg/day): protects cognitive function in 5×FAD mice
number of platform crosses (5×FAD mice; MWM probe test, 5×FAD mice): significantly decreased in the vehicle-treated 5×FAD group compared to the other groups
average latency to crossing the platform area [2, 6]: significantly increased in the vehicle-treated TBI-injured group compared to all other groups
number of platform crosses [2, 6]: significantly decreased in the vehicle-treated TBI-injured group compared to all other groups
average (escape) latency to find the hidden platform (learning) ([2]; TBI and sham-injured mice, 4-day learning period, 5 mg/kg twice daily): not different between groups
memory / cognitive impairment after TBI (MWM probe) ([2]; TBI mice, 5 mg/kg): TBI-injured animals treated with vehicle showed memory deficits compared to the (+)-SW033291-treated TBI group
memory / cognitive impairment after TBI (MWM probe) ([2]; TBI mice, listed as (+)-SW033921, 5 mg/kg): protects wild type mice from cognitive impairment after TBI
15-PGDH activity in the whole brain (15-PGDH [3]; 5×FAD mice, compared to 5×FAD vehicle, 5 mg/kg/day): significantly lowered 15-PGDH activity in the whole brain; also recorded: returned to normal
15-PGDH activity in the whole brain (15-PGDH [3]; WT mice, compared to WT vehicle): significantly lowered 15-PGDH activity in the whole brain
